What follows are compounds tested against T1, Recombinant human KIF18A (1-467His-tagged) protein (Homo sapiens, UniProt Q8NI77) (assay: KIF18A enzyme assay (microtubule-stimulated ATPase activity, ADP-Glo)). Conditions: 30 nM KIF18A, 75 μM ATP, 30 μg/mL pig microtubules; read-out: Inhibitory activity against KIF18A IC50.
T1 construct: Recombinant human KIF18A (1-467His-tagged) protein; His; made in house
Type: biochemical
In short: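 Buffer 15 mM Tris pH 7.5, 10 mM MgCl2, 0.01% Pluronic F-68, 1 μM paclitaxel, 30 μg/mL pig microtubules; reactions at room temperature. IC50 from inhibition relative to DMSO.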

T1 sequence (Q8NI77 1-467): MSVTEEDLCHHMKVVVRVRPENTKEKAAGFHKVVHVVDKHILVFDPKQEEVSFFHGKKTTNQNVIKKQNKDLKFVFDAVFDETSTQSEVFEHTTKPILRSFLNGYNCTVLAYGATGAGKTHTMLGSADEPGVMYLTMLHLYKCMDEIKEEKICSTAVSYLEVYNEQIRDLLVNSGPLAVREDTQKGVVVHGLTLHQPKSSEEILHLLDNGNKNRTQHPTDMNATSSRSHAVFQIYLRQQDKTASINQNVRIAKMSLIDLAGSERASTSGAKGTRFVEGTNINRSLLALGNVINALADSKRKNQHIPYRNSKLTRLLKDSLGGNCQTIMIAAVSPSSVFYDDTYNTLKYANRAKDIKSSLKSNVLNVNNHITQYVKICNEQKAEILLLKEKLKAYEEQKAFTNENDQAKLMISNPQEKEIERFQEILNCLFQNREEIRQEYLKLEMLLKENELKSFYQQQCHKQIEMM
T1 sequence (P02550 whole entry partner): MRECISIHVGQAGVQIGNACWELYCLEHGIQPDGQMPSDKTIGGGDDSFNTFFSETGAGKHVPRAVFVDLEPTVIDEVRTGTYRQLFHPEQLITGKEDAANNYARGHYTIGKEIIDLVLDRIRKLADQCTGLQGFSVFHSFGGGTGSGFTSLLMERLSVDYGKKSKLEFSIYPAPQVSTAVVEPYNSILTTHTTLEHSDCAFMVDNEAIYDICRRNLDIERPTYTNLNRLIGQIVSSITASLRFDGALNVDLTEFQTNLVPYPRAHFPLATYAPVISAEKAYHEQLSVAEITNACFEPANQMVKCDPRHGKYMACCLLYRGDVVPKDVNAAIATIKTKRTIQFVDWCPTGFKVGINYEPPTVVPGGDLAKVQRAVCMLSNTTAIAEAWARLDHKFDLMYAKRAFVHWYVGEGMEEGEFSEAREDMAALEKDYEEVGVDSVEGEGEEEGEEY
T1 sequence (P02554 whole entry partner): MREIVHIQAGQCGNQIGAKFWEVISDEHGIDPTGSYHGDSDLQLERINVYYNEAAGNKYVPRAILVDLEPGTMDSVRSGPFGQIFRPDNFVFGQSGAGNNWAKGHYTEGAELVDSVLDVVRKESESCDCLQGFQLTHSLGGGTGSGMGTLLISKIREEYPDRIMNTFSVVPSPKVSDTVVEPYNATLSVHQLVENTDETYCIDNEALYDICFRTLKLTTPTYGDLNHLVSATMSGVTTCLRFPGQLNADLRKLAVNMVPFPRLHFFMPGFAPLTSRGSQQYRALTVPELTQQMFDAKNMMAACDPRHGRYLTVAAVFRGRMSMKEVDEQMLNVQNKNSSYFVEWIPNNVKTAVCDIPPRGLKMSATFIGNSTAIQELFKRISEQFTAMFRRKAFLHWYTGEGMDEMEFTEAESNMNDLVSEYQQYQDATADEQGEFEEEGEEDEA

SMILES	IC50
O=C(Nc1ccc(NS(=O)(=O)CCO)cc1N1CCC2(CC1)CC2)c1ccc([N+](=O)[O-])c(N2CCC(F)CC2)n1 [Compound 169]	≤ 100 nM
O=C(Nc1ccc([N+](=O)[O-])c(N2CCC(F)CC2)n1)c1cnc(NS(=O)(=O)CCO)cc1N1CCC2(CC1)CC2 [Compound 137]	≤ 100 nM
O=C(Nc1ccc([N+](=O)[O-])c(N2CCC(F)(F)CC2)n1)c1ccc(S(=O)(=O)NCCO)cc1N1CCC2(CC1)CC2 [Compound 81]	≤ 100 nM
C[C@@H](CO)NS(=O)(=O)c1ccc(NC(=O)c2ccc([N+](=O)[O-])c(N3CCC(F)(F)CC3)c2)c(N2CCC3(CC2)CC3)c1 [Compound 61]	100 to 500 nM
O=C(Nc1ccc(NS(=O)(=O)CCO)cc1N1CCC2(CC1)CC2)c1ccc([N+](=O)[O-])c(OCCC(F)(F)F)n1 [Compound 165]	≤ 100 nM
CC(C)(CO)Nc1nc(C(=O)Nc2cnc(S(=O)(=O)NCCO)cc2N2CCC3(CC2)CC3)ccc1[N+](=O)[O-] [Compound 251]	100 to 500 nM
O=C(Nc1cnc(NS(=O)(=O)CCO)cc1N1CCC2(CC1)CC2)c1ccc([N+](=O)[O-])c(N2CCC(F)CC2)c1 [Compound 201]	≤ 100 nM
CC1(F)CCN(c2nc(NC(=O)c3ccc(NS(=O)(=O)CCO)cc3N3CCC4(CC3)CC4)ccc2[N+](=O)[O-])C1 (centres unmarked) [Compound 72]	≤ 100 nM
O=C(Nc1ccc(NS(=O)(=O)CCO)cc1N1CCC2(CC1)CC2)c1ccc([N+](=O)[O-])c(N2CCC(F)(F)CC2)c1 [Compound 33]	≤ 100 nM
COc1ccc(NC(=O)c2ccc(S(=O)(=O)N[C@H](C)CO)cc2N2CCC3(CC2)CC3)nc1N1CCO[C@H](C)C1 [Compound 288]	≤ 100 nM
COc1ccc(NC(=O)c2cnc(NS(=O)(=O)CCO)cc2N2CCC3(CC2)CC3)nc1N1CC(F)(F)C1 [Compound 292]	≤ 100 nM
C[C@@H]1CN(c2nc(NC(=O)c3ccc(NS(=O)(=O)[C@H](C)CO)cc3N3CCC4(CC3)CC4)ccc2[N+](=O)[O-])CCO1 [Compound 80]	≤ 100 nM
O=C(Nc1cnc(NS(=O)(=O)CCO)cc1N1CCC2(CC1)CC2)c1ccc([N+](=O)[O-])c(N2CCC3(CC3)C2)n1 [Compound 230]	≤ 100 nM
CC(C)(CO)Nc1cc(C(=O)Nc2ccc(S(=O)(=O)NCCO)cc2N2CCC3(CC2)CC3)ccc1[N+](=O)[O-] [Compound 59]	100 to 500 nM
COc1ccc(NC(=O)c2cnc(S(=O)(=O)NCCO)cc2N2CCC3(CC2)CC3)nc1N1CCO[C@@H](C)C1 [Compound 307]	≤ 100 nM
O=C(Nc1ccc([N+](=O)[O-])c(N2CC(F)(F)C2)n1)c1ccc(NS(=O)(=O)CCO)cc1N1CCC2(CC1)CC2 [Compound 68]	≤ 100 nM

SMILES	IC50
O=C(Nc1ccc([N+](=O)[O-])c(N2CC3CC3C2)c1)c1ccc(NS(=O)(=O)CCO)cc1N1CCC2(CC1)CC2 (centres unmarked) [Compound 10]	≤ 100 nM
C[C@@H]1CN(c2nc(NC(=O)c3cnc(NS(=O)(=O)[C@H](C)CO)cc3N3CCC4(CC3)CC4)ccc2[N+](=O)[O-])CCO1 [Compound 144]	≤ 100 nM
C[C@@H](CO)NS(=O)(=O)c1cc(N2CCC3(CC2)CC3)c(NC(=O)c2ccc([N+](=O)[O-])c(N3CCC(F)(F)CC3)c2)cn1 [Compound 221]	100 to 500 nM
O=C(Nc1ccc(S(=O)(=O)NCCO)cc1N1CCC2(CC1)CC2)c1ccc([N+](=O)[O-])c(N2CC3CC3C2)c1 (centres unmarked) [Compound 58]	100 to 500 nM
COc1ccc(NC(=O)c2cnc(NS(=O)(=O)CCO)cc2N2CCC3(CC2)CC3)nc1N1CCC2(CC2)C1 [Compound 294]	≤ 100 nM
C[C@@H]1CN(c2cc(C(=O)Nc3ccc(S(=O)(=O)N[C@@H](C)CO)cc3N3CCC4(CC3)CC4)ccc2[N+](=O)[O-])CCO1 [Compound 63]	100 to 500 nM
C[C@@H](CO)S(=O)(=O)Nc1cc(N2CCC3(CC2)CC3)c(NC(=O)c2ccc([N+](=O)[O-])c(N3CCC(F)(F)CC3)n2)cn1 [Compound 237]	≤ 100 nM
O=C(Nc1ccc([N+](=O)[O-])c(N2CCC3(CC3)C2)n1)c1ccc(NS(=O)(=O)CCO)cc1N1CCC2(CC1)CC2 [Compound 70]	≤ 100 nM
O=C(Nc1cnc(NS(=O)(=O)CCO)cc1N1CCC2(CC1)CC2)c1ccc([N+](=O)[O-])c(N2CCOCC2)n1 [Compound 236]	≤ 100 nM
COc1ccc(NC(=O)c2ccc(S(=O)(=O)NCCO)cc2N2CCC3(CC2)CC3)nc1N1CCO[C@@H](C)C1 [Compound 275]	≤ 100 nM
C[C@H](CO)S(=O)(=O)Nc1ccc(C(=O)Nc2ccc([N+](=O)[O-])c(N3CCC(F)(F)CC3)c2)c(N2CCC3(CC2)CC3)c1 [Compound 14]	≤ 100 nM
C[C@@H]1CN(c2nc(C(=O)Nc3cnc(S(=O)(=O)NCCO)cc3N3CCC4(CC3)CC4)ccc2[N+](=O)[O-])CCO1 [Compound 242]	100 to 500 nM
COc1ccc(NC(=O)c2cnc(S(=O)(=O)NCCO)cc2N2CCC3(CC2)CC3)nc1OCCC(F)(F)F [Compound 309]	≤ 100 nM
C[C@@H]1CN(c2cc(NC(=O)c3cnc(S(=O)(=O)NCCO)cc3N3CCC4(CC3)CC4)ccc2[N+](=O)[O-])CCO1 [Compound 114]	≤ 100 nM
CC1(F)CCN(c2cc(C(=O)Nc3ccc(S(=O)(=O)NCCO)cc3N3CCC4(CC3)CC4)ccc2[N+](=O)[O-])C1 (centres unmarked) [Compound 56]	100 to 500 nM
O=C(Nc1ccc([N+](=O)[O-])c(N2CCC(F)CC2)n1)c1cnc(S(=O)(=O)NCCO)cc1N1CCC2(CC1)CC2 [Compound 153]	≤ 100 nM

Continued, values first:

IC50	SMILES
≤ 100 nM	O=C(Nc1ccc(NS(=O)(=O)CCO)cc1N1CCC2(CC1)CC2)c1ccc(OCF)c(N2CC(F)(F)C2)c1 [Compound 516]
≤ 100 nM	C[C@@H]1CN(c2nc(NC(=O)c3ccc(NS(=O)(=O)[C@H](C)CO)cc3N3CCC4(CC3)CC4)ccc2OCF)CCO1 [Compound 432]
≤ 100 nM	COc1ccc(C(=O)Nc2cnc(S(=O)(=O)NCCO)cc2N2CCC3(CC2)CC3)nc1NC(C)(C)CO [Compound 379]
≤ 100 nM	CSc1ccc(NC(=O)c2ccc(NS(=O)(=O)CCO)cc2N2CCC3(CC2)CC3)cc1N1CCC2(CC2)C1 [Compound 582]
≤ 100 nM	O=C(Nc1ccc(OCF)c(N2CCC3(CC3)C2)c1)c1cnc(NS(=O)(=O)CCO)cc1N1CCC2(CC1)CC2 [Compound 454]
≤ 100 nM	COc1ccc(C(=O)Nc2ccc(NS(=O)(=O)[C@@H](C)CO)cc2N2CCC3(CC2)CC3)nc1N1CCC(F)(F)CC1 [Compound 333]
≤ 100 nM	COc1ccc(NC(=O)c2cnc(S(=O)(=O)NCCO)cc2N2CCC3(CC2)CC3)nc1N1CC2CC2C1 (centres unmarked) [Compound 314]
≤ 100 nM	O=C(Nc1ccc(NS(=O)(=O)CCO)cc1N1CCC2(CC1)CC2)c1ccc(OCF)c(OCCC(F)(F)F)n1 [Compound 549]
≤ 100 nM	CC1(F)CCN(c2cc(NC(=O)c3ccc(S(=O)(=O)NCCO)cc3N3CCC4(CC3)CC4)ccc2OCF)C1 (centres unmarked) [Compound 408]
≤ 100 nM	C[C@@H]1CN(c2cc(C(=O)Nc3ccc(NS(=O)(=O)CCO)cc3N3CCC4(CC3)CC4)ccc2OCF)CCO1 [Compound 514]
≤ 100 nM	COc1ccc(C(=O)Nc2cnc(S(=O)(=O)NCCO)cc2N2CCC3(CC2)CC3)nc1N1CCC(F)CC1 [Compound 377]
≤ 100 nM	COc1ccc(C(=O)Nc2cnc(S(=O)(=O)NCCO)cc2N2CCC3(CC2)CC3)nc1N1CCC2(CC2)C1 [Compound 374]
≤ 100 nM	CC(C)(CO)Nc1cc(NC(=O)c2cnc(NS(=O)(=O)CCO)cc2N2CCC3(CC2)CC3)ccc1OCF [Compound 459]
≤ 100 nM	COc1ccc(C(=O)Nc2cnc(NS(=O)(=O)[C@H](C)CO)cc2N2CCC3(CC2)CC3)nc1N1CCO[C@H](C)C1 [Compound 384]
≤ 100 nM	CSc1ccc(NC(=O)c2ccc(NS(=O)(=O)CCO)cc2N2CCC3(CC2)CC3)nc1N1CCOCC1 [Compound 604]
≤ 100 nM	C[C@H]1CN(c2cc(C(=O)Nc3ccc(NS(=O)(=O)CCO)cc3N3CCC4(CC3)CC4)ccc2OCF)CCO1 [Compound 515]
≤ 100 nM	CSc1ccc(NC(=O)c2cnc(NS(=O)(=O)CCO)cc2N2CCC3(CC2)CC3)nc1OCCC(F)(F)F [Compound 629]
≤ 100 nM	CSc1ccc(NC(=O)c2ccc(NS(=O)(=O)CCO)cc2N2CCC3(CC2)CC3)cc1OC1CCC1 [Compound 583]
≤ 100 nM	COc1ccc(NC(=O)c2cnc(S(=O)(=O)N[C@@H](C)CO)cc2N2CCC3(CC2)CC3)nc1N1CCC(F)(F)CC1 [Compound 317]
≤ 100 nM	COc1ccc(C(=O)Nc2cnc(S(=O)(=O)N[C@H](C)CO)cc2N2CCC3(CC2)CC3)nc1N1CCC(F)(F)CC1 [Compound 382]
≤ 100 nM	COc1ccc(C(=O)Nc2cnc(NS(=O)(=O)CCO)cc2N2CCC3(CC2)CC3)nc1N1CCO[C@H](C)C1 [Compound 354]
100 to 500 nM	O=C(Nc1ccc(S(=O)(=O)NCCO)cc1N1CCC2(CC1)CC2)c1ccc(OCF)c(OC2CCC2)c1 [Compound 535]
≤ 100 nM	COc1ccc(NC(=O)c2cnc(S(=O)(=O)N[C@@H](C)CO)cc2N2CCC3(CC2)CC3)nc1N1CCO[C@H](C)C1 [Compound 319]
≤ 100 nM	COc1ccc(C(=O)Nc2cnc(S(=O)(=O)NCCO)cc2N2CCC3(CC2)CC3)nc1N1CCOCC1 [Compound 380]
≤ 100 nM	COc1ccc(C(=O)Nc2cnc(S(=O)(=O)N[C@@H](C)CO)cc2N2CCC3(CC2)CC3)nc1N1CCO[C@H](C)C1 [Compound 383]
≤ 100 nM	CC(C)(CO)Nc1cc(NC(=O)c2cnc(S(=O)(=O)NCCO)cc2N2CCC3(CC2)CC3)ccc1OCF [Compound 475]
≤ 100 nM	C[C@H](CO)NS(=O)(=O)c1ccc(C(=O)Nc2ccc(OCF)c(N3CCO[C@H](C)C3)n2)c(N2CCC3(CC2)CC3)c1 [Compound 448]
≤ 100 nM	CC(C)(CO)Nc1cc(NC(=O)c2ccc(NS(=O)(=O)CCO)cc2N2CCC3(CC2)CC3)ccc1OCF [Compound 395]
≤ 100 nM	O=C(Nc1ccc(OCF)c(OC2CCC2)c1)c1ccc(S(=O)(=O)NCCO)cc1N1CCC2(CC1)CC2 [Compound 407]
≤ 100 nM	CSc1ccc(NC(=O)c2cnc(NS(=O)(=O)CCO)cc2N2CCC3(CC2)CC3)cc1NC(C)(C)CO [Compound 619]

— US20260158017A1, “KIF18A INHIBITOR” (WIGEN BIOMEDICINE TECHNOLOGY (SHANGHAI) CO., LTD., priority 2021, published 2026)
